Results on 18 compounds are retold here after patent US20240252693A1, “FOLATE RECEPTOR-TARGETED RADIOTHERAPEUTIC AGENTS AND THEIR USE” (Novartis AG, priority 2021, published 2024).

*1 amine or outer side, *2 acyl side, *3 side chain or, on linkers, in order; H or OH if unused. Where a SMILES comes first, the peptide text is derived from it. [ ]: non-standard residue; d: D form. The star is where a group is joined. NH(1-deoxy-D-glucityl) = OC[C@@H](O)[C@@H](O)[C@H](O)[C@@H](O)CN*; DOTA = O=C(O)CN1CCN(CC(=O)O)CCN(CC(=O)*)CCN(CC(=O)O)CC1; Pteroyl = Nc1nc2ncc(CNc3ccc(C(=O)*)cc3)nc2c(=O)[nH]1; γGlu = O=C(O)[C@H](CCC(=O)[*:2])N[*:1]; βAsp = O=C(O)[C@H](CC(=O)[*:2])N[*:1]; Dap = NC[C@H](N)C(=O)O

One data set deals with FR-positive M109 tumor. As to the kind of experiment: In vivo biodistribution in mice bearing M109 tumors. The settings on record: 111In chelate, 100 nmol/kg. The source says:
Four- to eight-week-old female nu/nu mice or NSG mice (Harlan Sprague-Dawley, Inc.) were maintained on a standard 12-h light-dark cycle and fed ad libitum with Folate deficient purified rodent diet (TestDiet #AIN-93G) for the duration of the experiment. FR-positive M109 or FR-negative HT29 tumor cells were inoculated in the subcutis dorsal medial area of mice. The biodistribution studies were typically performed when tumors were approximately 400-800 mm^3 in volume. Mice were divided into groups of three, and freshly prepared test articles and competitors were injected through the lateral tail vein in a volume of 100 μL/10 g of PBS. Four h to six days post radioactive-agent dose administration, mice were euthanized and organs (blood, heart, lungs, liver, spleen, and kidneys, intestine, stomach, muscle, brain and tumor) were collected, weighed and placed inside counting vials. Each tissue sample was counted for the activities of radioelement using a gamma-counter. Samples of the injectate were used as decay correction standards. Final bar graphs are expressed as % injected dose per gram of tissue or tumor to kidney ratio, or % tumor to (kidneys+liver+spleen) ratio.
As to `Nc1nc2ncc(CNc3ccc(C(=O)N[C@@H](CC(=O)N[C@@H](CCC(=O)NC[C@H](O)[C@@H](O)[C@H](O)[C@H](O)CO)C(=O)N[C@@H](CCC(=O)NC[C@H](O)[C@@H](O)[C@H](O)[C@H](O)CO)C(=O)N[C@@H](CCC(=O)NC[C@H](O)[C@@H](O)[C@H](O)[C@H](O)CO)C(=O)N[C@@H](CNC(=O)CN4CCN(CC(=O)O)CCN(CC(=O)O)CCN(CC(=O)O)CC4)C(=O)O)C(=O)O)cc3)nc2c(=O)[nH]1` [Compound 11] ({Pteroyl-βAsp}-E(NH(1-deoxy-D-glucityl))E(NH(1-deoxy-D-glucityl))E(NH(1-deoxy-D-glucityl))[Dap](DOTA)-OH), the T/Kid is on record as 0.19 +/− 0.01, the T/Liv was 5.7 +/− 1.5, the T/spl is on record as 28.0 +/− 31^ and the “T^2/kid” value is recorded as 1.0 +/− 0.14.

Consider `Nc1nc2ncc(CNc3ccc(C(=O)N[C@@H](CCC(=O)N[C@@H](CCC(=O)NC[C@H](O)[C@@H](O)[C@H](O)[C@H](O)CO)C(=O)N[C@@H](CCC(=O)NC[C@H](O)[C@@H](O)[C@H](O)[C@H](O)CO)C(=O)N[C@@H](CCC(=O)NC[C@H](O)[C@@H](O)[C@H](O)[C@H](O)CO)C(=O)N[C@@H](CNC(=O)CN4CCN(CC(=O)O)CCN(CC(=O)O)CCN(CC(=O)O)CC4)C(=O)O)C(=O)O)cc3)nc2c(=O)[nH]1` [Compound 13] ({Pteroyl-γGlu}-E(NH(1-deoxy-D-glucityl))E(NH(1-deoxy-D-glucityl))E(NH(1-deoxy-D-glucityl))[Dap](DOTA)-OH), for which the T/Kid was 0.22 +/− 0.06, the T/Liv was 6.4 +/− 1.5, the T/spl is 31.9 +/− 7.6 and the “T^2/kid” value was 1.7 +/− 1.1.

In the case of `Nc1nc(O)c2nc(CNc3ccc(C(=O)N[C@@H](CCC(=O)NCCNC(=O)CCC(C(=O)O)N4CCN(CC(=O)O)CCN(CC(=O)O)CCN(CC(=O)O)CC4)C(=O)O)cc3)cnc2n1` (stereo partly shown) [Compound 28], the T/Kid is recorded as 0.098 +/− 0.003, the T/Liv was 1.2 +/− 0.1, the T/spl was 2.1 +/− 0.3 and the “T^2/kid” value is recorded as 0.03 +/− 0.001.

The same data set, now with this note: 177Lu chelate, 100 nmol/kg.
Regarding `Nc1nc2ncc(CNc3ccc(C(=O)N[C@@H](CNC(=O)C[C@H](NC(=O)CN4CCN(CC(=O)O)CCN(CC(=O)O)CCN(CC(=O)O)CC4)C(=O)O)C(=O)O)cc3)nc2c(=O)[nH]1` [Compound 20], the T/Kid was 0.21 +/− 0.01, the T/Liv is reported as 4.6 +/− 2.1, the T/spl is given as 16.4 +/− 1.9 and the “T^2/kid” value was 1.5 +/− 0.3.

The same data set, now with this note: 177Lu chelate, 200 nmol/kg.
Turning to `CSCC[C@H](NC(=O)CN1CCN(CC(=O)O)CCN(CC(=O)O)CCN(CC(=O)O)CC1)C(=O)N[C@H](C(=O)N[C@@H](CCCCNC(=O)C[C@H](NC(=O)c1ccc(NCc2cnc3nc(N)[nH]c(=O)c3n2)cc1)C(=O)O)C(=O)O)C(C)C` [Compound 54, Pte-Asp(DOTA-Met-Val-ε-Lys-OH)—OH], the T/Kid is listed as 0.23 +/− 0.03, the T/Liv was 9.0 +/− 0.9, the T/spl was 56.4 +/− 6.2 and the “T^2/kid” value was 0.76 +/− 0.12.

For the compound `Nc1nc2ncc(CNc3ccc(C(=O)N[C@@H](CNC(=O)CNC(=O)CN4CCN(CC(=O)O)CCN(CC(=O)O)CCN(CC(=O)O)CC4)C(=O)O)cc3)nc2c(=O)[nH]1` [Compound 68, Pte-Dap(Gly-DOTA)-OH], the T/Kid is 0.29 +/− 0.08, the T/Liv is recorded as 10.1 +/− 3.2, the T/spl is given as 55.6 +/− 17.1 and the “T^2/kid” value is recorded as 1.37 +/− 0.73.

The data set is the same for the next values; noted with them: 177Lu chelate, 300 nmol/kg.
As to `Nc1nc2ncc(CNc3ccc(C(=O)N[C@@H](CCCCNC(=O)COc4ccc(C[C@H](NC(=O)CN5CCN(CC(=O)O)CCN(CC(=O)O)CCN(CC(=O)O)CC5)C(=O)O)cc4)C(=O)O)cc3)nc2c(=O)[nH]1` [Compound 38, Pte-Lys(DOTA-Tyr(O-carbonylmethyl)-OH)—OH], the T/Kid is given as 0.46 +/− 0.03, the T/Liv is 10.5 +/− 2.9, the T/spl is 69.9 +/− 7.9 and the “T^2/kid” value was 1.28 +/− 0.11.

Consider `Nc1nc2ncc(CNc3ccc(C(=O)N[C@@H](CCCCNC(=O)COc4ccc(C[C@H](NC(=O)COc5ccc(C[C@H](NC(=O)CN6CCN(CC(=O)O)CCN(CC(=O)O)CCN(CC(=O)O)CC6)C(=O)O)cc5)C(=O)O)cc4)C(=O)O)cc3)nc2c(=O)[nH]1` [Compound 39, Pte-Lys(DOTA-(Tyr(O-carbonylmethyl)-OH)2)—OH], for which the T/Kid is given as 0.57 +/− 0.22, the T/Liv is 17.1 +/− 6.4, the T/spl is on record as 83.8 +/− 29.7 and the “T^2/kid” value is 1.68 +/− 0.59.

With `Nc1nc2ncc(CNc3ccc(C(=O)N[C@@H](CCCCNC(=O)C[C@H](NC(=O)[C@H](Cc4ccc5ccccc5c4)NC(=O)[C@H](Cc4ccc5ccccc5c4)NC(=O)CN4CCN(CC(=O)O)CCN(CC(=O)O)CCN(CC(=O)O)CC4)C(=O)O)C(=O)O)cc3)nc2c(=O)[nH]1` [Compound 42, Pte-Lys(β-Asp-2-Nal-2-Nal-DOTA)-OH], the T/Kid was 0.49 +/− 0.16, the T/Liv is 17.3 +/− 4.9, the T/spl is listed as 84.4 +/− 10.4 and the “T^2/kid” value is 1.64 +/− 0.62.

In the case of `Nc1nc2ncc(CNc3ccc(C(=O)N[C@@H](CCCCNC(=O)C[C@H](NC(=O)[C@H](Cc4ccc(Br)cc4)NC(=O)CNC(=O)CN4CCN(CC(=O)O)CCN(CC(=O)O)CCN(CC(=O)O)CC4)C(=O)O)C(=O)O)cc3)nc2c(=O)[nH]1` [Compound 43, Pte-Lys(β-Asp-4-Br-Phe-Gly-DOTA)-OH], the T/Kid is on record as 0.58 +/− 0.10, the T/Liv is reported as 13.0 +/− 3.7, the T/spl is recorded as 70.2 +/− 6.7 and the “T^2/kid” value is given as 1.57 +/− 0.53.

Turning to `CSCC[C@H](NC(=S)Nc1ccc(CC2CN(CC(=O)O)CCN(CC(=O)O)CCN(CC(=O)O)CCN2CC(=O)O)cc1)C(=O)N[C@H](C(=O)N[C@@H](CCCCN1C(=O)CC(SC[C@@H](NC(=O)[C@H](CC(=O)O)NC(=O)[C@H](CC(=O)O)NC(=O)[C@H](CCCNC(=N)N)NC(=O)[C@H](CC(=O)O)NC(=O)CC[C@H](NC(=O)c2ccc(NCc3cnc4nc(N)[nH]c(=O)c4n3)cc2)C(=O)O)C(=O)O)C1=O)C(=O)O)C(C)C` (stereo partly drawn) [Compound 58, DOTA-Bn-NHC(S)NH-Met-Val-Lys(Mal-S-Cys-Asp-Asp-Arg-Asp-Folate)-OH], the T/Kid is listed as 0.59 +/− 0.12, the T/Liv is given as 28.8 +/− 2.9, the T/spl is 83.1 +/− 17.3 and the “T^2/kid” value is recorded as 0.59 +/− 0.16.

Consider `Nc1nc2ncc(CNc3ccc(C(=O)N[C@@H](Cc4ccc(OCC(=O)NCCNC(=O)CN5CCN(CC(=O)O)CCN(CC(=O)O)CCN(CC(=O)O)CC5)cc4)C(=O)O)cc3)nc2c(=O)[nH]1` [Compound 61, Pte-Tyr(OCH2CO-EDA-DOTA)-OH], for which the T/Kid is given as 0.27 +/− 0.03, the T/Liv is listed as 8.6 +/− 3.9, the T/spl was 40.3 +/− 18.7 and the “T^2/kid” value is recorded as 1.05 +/− 0.28.

`Nc1nc2ncc(CNc3ccc(C(=O)N[C@@H](Cc4ccc(OCCNC(=O)CN5CCN(CC(=O)O)CCN(CC(=O)O)CCN(CC(=O)O)CC5)cc4)C(=O)O)cc3)nc2c(=O)[nH]1` [Compound 64, Pte-Tyr(OCH2CH2—NH-DOTA)-OH]: the T/Kid is 0.38 +/− 0.07, the T/Liv is recorded as 14.6 +/− 2.0, the T/spl is reported as 85.5 +/− 7.7 and the “T^2/kid” value is on record as 1.48 +/− 0.51.

A further data set relates to KB tumor. As to the kind of experiment: In vivo biodistribution in mice bearing KB tumors. The settings on record: 177Lu chelate, 200 nmol/kg.
Take `Nc1nc2ncc(CNc3ccc(C(=O)NCCCC[C@H](NC(=O)CNC(=O)CN4CCN(CC(=O)O)CCN(CC(=O)O)CCN(CC(=O)O)CC4)C(=O)O)cc3)nc2c(=O)[nH]1` [Compound 45, DOTA-Gly-Lys(Pte)-OH]: the T/Kid is recorded as 0.16 +/− 0.01, the T/Liv is 6.8 +/− 1.1, the T/spl is 50.7 +/− 24.0 and the “T^2/kid” value is on record as 0.64 +/− 0.19.

With `Nc1nc2ncc(CNc3ccc(C(=O)NCCCC[C@H](NC(=O)CN4CCN(CC(=O)O)CCN(CC(=O)O)CCN(CC(=O)O)CC4)C(=O)O)cc3)nc2c(=O)[nH]1` [Compound 46, DOTA-Lys(Pte)-OH], the T/Kid is on record as 0.19 +/− 0.03, the T/Liv is listed as 6.3 +/− 1.9, the T/spl is reported as 66.9 +/− 30.8 and the “T^2/kid” value is reported as 0.84 +/− 0.32.

Regarding `Nc1nc2ncc(CNc3ccc(C(=O)N[C@@H](CC(=O)NCCCC[C@H](NC(=O)CNC(=O)CN4CCN(CC(=O)O)CCN(CC(=O)O)CCN(CC(=O)O)CC4)C(=O)O)C(=O)O)cc3)nc2c(=O)[nH]1` [Compound 51, Pte-Asp(DOTA-Gly-ε-Lys-OH)—OH], the T/Kid is given as 0.32 +/− 0.09, the T/Liv is listed as 11.0 +/− 2.3, the T/spl is 54.8 +/− 11.3 and the “T^2/kid” value was 1.35 +/− 0.54.

The same data set, now with this note: 225Ac chelate, 30 nmol/kg.
On to `Nc1nc2ncc(CNc3ccc(C(=O)N[C@@H](CCC(=O)NC[C@H](N)C(=O)N[C@@H](CC(=O)O)C(=O)N[C@@H](CSC4CC(=O)N(CCNC(=O)CN5CCN(CC(=O)O)CCN(CC(=O)O)CCN(CC(=O)O)CC5)C4=O)C(=O)O)C(=O)O)cc3)nc2c(=O)[nH]1` (stereo partly shown) [Compound 25], for which the T/Kid was 0.07 +/− 0.03, the T/Liv was 3.3 +/− 1.8 and the T/spl is 15.8 +/− 5.9.

Regarding `Nc1nc2ncc(CNc3ccc(C(=O)N[C@@H](CCCCNC(=O)[C@H](Cc4ccc5ccccc5c4)NC(=O)[C@H]4CC[C@H](CNC(=O)CCC(C(=O)O)N5CCN(CC(=O)O)CCN(CC(=O)O)CCN(CC(=O)O)CC5)CC4)C(=O)O)cc3)nc2c(=O)[nH]1` (stereo partly shown) [Compound 26], the T/Kid was 0.08 +/− 0.02, the T/Liv is reported as 3.3 +/− 1.1 and the T/spl is given as 20.4 +/− 5.6.
